# Measured values as given in US7989620B2, “Hydantoin derivatives for the treatment of obstructive airway diseases” (AstraZeneca AB, priority 2004, dated 2011).
# What was measured:
# hMMP8 = molecular target: T1, hMMP8 (Homo sapiens, UniProt P22894); experiment: Isolated enzyme assay MMP8; assay type: biochemical
# T1 construct: purchased Calbiochem
# Protocol: Purified pro-MMP8 is purchased from Calbiochem. The enzyme (at 10 μg/ml) is activated by p-amino-phenyl-mercuric acetate (APMA) at 1 mM for 2.5 h, 35° C. The activated enzyme can be used to monitor inhibitors of activity as follows: MMP8 (200 ng/ml final concentration) is incubated for 90 minutes at 35° C. (80% H2O) with the synthetic substrate Mca-Pro-Cha-Gly-Nva-His-Ala-Dpa-NH2 (12.5 μM) in assay buffer (0.1M “Tris-HCl” (trade mark) buffer, pH 7.5 containing 0.1M NaCl, 30 mM CaCl2, 0.040 mM ZnCl and 0.05% (w/v) “Brij 35” (trade mark) detergent) in the presence (10 concentrations) or absence of inhibitors. Activity is determined by measuring the fluorescence at λex 320 nm and λem 405 nm. Percent inhibition is calculated as follows: % Inhibition is equal to the [Fluorescenceplus inhibitor−Fluorescencebackground] divided by the [Fluorescenceminus inhibitor−Fluorescencebackground]. MMP9
# [1] = molecular target: T2, Recombinant human MMP9 catalytic domain (Homo sapiens, UniProt P14780); experiment: Isolated enzyme assay MMP9; assay type: biochemical; conditions: read-out: hMMP9 IC50
# T2 sequence (P14780 with tags, fused parts or gaps DEL216-390 limits assumed): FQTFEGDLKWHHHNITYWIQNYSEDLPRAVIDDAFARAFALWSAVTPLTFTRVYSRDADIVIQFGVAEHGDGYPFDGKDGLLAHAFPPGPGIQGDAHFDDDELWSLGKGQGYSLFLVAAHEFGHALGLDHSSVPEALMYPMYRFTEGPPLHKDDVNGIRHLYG
# Protocol: Recombinant human MMP9 catalytic domain was expressed and then purified by Zn chelate column chromatography followed by hydroxamate affinity column chromatography. The enzyme can be used to monitor inhibitors of activity as follows: MMP9 (5 ng/ml final concentration) is incubated for 30 minutes at RT with the synthetic substrate Mca-Pro-Cha-Gly-Nva-His-Ala-Dpa-NH2 (5 μM) in assay buffer (0.1 M “Tris-HCl” (trade mark) buffer, pH 7.3 containing 0.1M NaCl, 20 mM CaCl2, 0.020 mM ZnCl and 0.05% (w/v) “Brij 35” (trade mark) detergent) in the presence (10 concentrations) or absence of inhibitors. Activity is determined by measuring the fluorescence at λex 320 nm and λem 405 nm. Percent inhibition is calculated as follows: % Inhibition is equal to the [Fluorescenceplus inhibitor−Fluorescencebackground] divided by the [Fluorescenceminus inhibitor−Fluorescencebackground]. MMP14
# A protocol for testing against other matrix metalloproteinases, including MMP9, using expressed and purified pro MMP is described, for instance, by C. Graham Knight et al., (1992) FEBS Lett., 296(3), 263-266.
# [2] = molecular target: T3, Recombinant human MMP 12 catalytic domain (Homo sapiens, UniProt P39900); experiment: Isolated enzyme assay MMP12; assay type: biochemical; conditions: read-out: hMMP12 IC50
# T3 construct: Recombinant human MMP 12 catalytic domain; made in house
# Protocol: Recombinant human MMP 12 catalytic domain may be expressed and purified as described by Parkar A. A. et al, (2000), Protein Expression and Purification, 20, 152. The purified enzyme can be used to monitor inhibitors of activity as follows: MMP12 (50 ng/ml final concentration) is incubated for 60 minutes at room temperature with the synthetic substrate Mca-Pro-Cha-Gly-Nva-His-Ala-Dpa-NH2 (10 μM) in assay buffer (0.1M “Tris-HCP” (trade mark) buffer, pH 7.3 containing 0.1M NaCl, 20 mM CaCl2, 0.020 mM ZnCl and 0.05% (w/v) “Brij 35” (trade mark) detergent) in the presence (10 concentrations) or absence of inhibitors. Activity is determined by measuring the fluorescence at λex 320 nm and λem 405 nm. Percent inhibition is calculated as follows: % Inhibition is equal to the [Fluorescenceplus inhibitor−Fluorescencebackground] divided by the [Fluorescenceminus inhibitor−Fluorescencebackground]. MMP8
# [3] = molecular target: T4, Recombinant human MMP 14 catalytic domain (Homo sapiens, UniProt P50281); experiment: Isolated enzyme assay MMP14; assay type: biochemical; conditions: read-out: hMMP14 IC50
# T4 construct: Recombinant human MMP 14 catalytic domain; made in house
# Protocol: Recombinant human MMP 14 catalytic domain may be expressed and purified as described by Parkar A. A. et al, (2000), Protein Expression and Purification, 20, 152. The purified enzyme can be used to monitor inhibitors of activity as follows: MMP14 (10 ng/ml final concentration) is incubated for 60 minutes at room temperature with the synthetic substrate Mca-Pro-Cha-Gly-Nva-His-Ala-Dpa-NH2 (10 μM) in assay buffer (0.1M “Tris-HCl” (trade mark) buffer, pH 7.5 containing 0.1M NaCl, 20 mM CaCl2, 0.020 mM ZnCl and 0.05% (w/v) “Brij 35” (trade mark) detergent) in the presence (5 concentrations) or absence of inhibitors. Activity is determined by measuring the fluorescence at λex 320 nm and λem 405 nm. Percent inhibition is calculated as follows: % Inhibition is equal to the [Fluorescenceplus inhibitor−Fluorescencebackground] divided by the [Fluorescenceminus inhibitor−Fluorescencebackground].
# [4] = Determination of solubility in 0.1M phosphate buffer, pH 7.4; conditions: 20 °C, pH 7.4, aqueous buffer, thermodynamic from solid
# Protocol: Protocol for Determination of Solubility
# The test compound (1 mg) was weighed into a 2 mL glass vial with a screw cap and 0.1 M phosphate buffer pH 7.4. (1.00 mL) was added. The sample vial was then sonicated for about 10 minutes and then placed on a shake board overnight at 20° C. The contents of the sample vial were then filtered through a Millipore Millex-LH 0.45 μm filter into a new 2 mL glass vial to give a clear solution. The clear solution (40 μL) was transferred to a new 2 mL glass vial and diluted with 0.1 M phosphate buffer, pH 7.4 (960 μL).
# A standard calibration curve for each particular test compound was established using solutions of known concentration. These solutions of known concentration were normally chosen to have concentrations of ˜10 μg/mL and ˜50 μg/mL. They were prepared by dissolving a known weight of the compound in 99.5% ethanol (500 μL) and then sonicating for one minute if necessary. If the compound was still not completely dissolved, DMSO (500 μL) was added and the mixture sonicated for an additional one minute. The resulting solution was then diluted to the appropriate volume with a mixture of acetonitrile/100 mM ammonium acetate pH 5.5 20-50/80-50. If necessary, a further, more dilute, standard solution was prepared by dilution.
# plasma protein = experiment: Plasma protein binding by ultrafiltration; conditions: 10 μM, room temperature
# Protocol: Plasma protein binding was determined by ultrafiltration in an automated 96 well format assay. On each test occasion the plasma protein binding of a reference compound (budesonide) was monitored in parallel.
# Test compounds (10 mM dissolved in DMSO) were added to plasma to a final concentration of 10 μM and equilibrated at room temperature for 10 minutes. 350 μL of the plasma was transferred to an ultrafiltration plate, Microcon-96 (10 kDa cutoff, Millipore). The ultrafiltration plate was centrifuged at 3000 G for 70 minutes at room temperature. After centrifugation, the concentration of the compounds in the obtained plasma water (the unbound fraction) was determined by LC-MS/MS using a 3-point calibration curve and compared to the concentration in the original spiked plasma.
# The analyses were performed using a gradient chromatographic system with acetic acid/acetonitrile as mobile phases.
# [5] = molecular target: T5, Recombinant human MMP19 catalytic domain (Homo sapiens, UniProt Q99542); experiment: Isolated enzyme assay MMP19; assay type: biochemical; conditions: read-out: hMMP19 IC50
# T5 construct: Recombinant human MMP19 catalytic domain; made in house
# Protocol: Recombinant human MMP19 catalytic domain may be expressed and purified as described by Parkar A. A. et al, (2000), Protein Expression and Purification, 20:152. The purified enzyme can be used to monitor inhibitors of activity as follows: MMP19 (40 ng/ml final concentration) is incubated for 120 minutes at 35° C. with the synthetic substrate Mca-Pro-Leu-Ala-Nva-Dpa-Ala-Arg-NH2 (5 μM) in assay buffer (0.1M “Tris-HCl ” (trade mark) buffer, pH 7.3 containing 0.1M NaCl, 20 mM CaCl2, 0.020 mM ZnCl and 0.05% (w/v) “Brij 35” (trade mark) detergent) in the presence (5 concentrations) or absence of inhibitors. Activity is determined by measuring the fluorescence at λex 320 nm and λem 405 nm. Percent inhibition is calculated as follows: % Inhibition is equal to the [Fluorescenceplus inhibitor−Fluorescencebackground] divided by the [Fluorescenceminus inhibitor−Fluorescencebackground].
# T1 sequence (P22894 101-467): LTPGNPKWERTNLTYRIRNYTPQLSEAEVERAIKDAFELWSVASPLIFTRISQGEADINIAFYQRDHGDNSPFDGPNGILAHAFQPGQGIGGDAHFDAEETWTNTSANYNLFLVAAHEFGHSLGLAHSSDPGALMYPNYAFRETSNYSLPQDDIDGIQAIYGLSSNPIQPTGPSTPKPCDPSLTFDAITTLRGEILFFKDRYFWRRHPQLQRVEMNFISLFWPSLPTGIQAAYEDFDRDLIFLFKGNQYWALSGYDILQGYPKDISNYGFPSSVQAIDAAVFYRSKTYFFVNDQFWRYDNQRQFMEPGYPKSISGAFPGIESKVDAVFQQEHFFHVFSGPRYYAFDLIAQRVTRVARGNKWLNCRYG
# T3 sequence (P39900 106-263 limits assumed): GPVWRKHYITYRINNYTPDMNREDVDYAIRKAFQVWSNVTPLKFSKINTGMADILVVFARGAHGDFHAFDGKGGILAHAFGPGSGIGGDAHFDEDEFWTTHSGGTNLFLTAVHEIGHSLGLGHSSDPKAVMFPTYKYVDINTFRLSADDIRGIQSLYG
# T5 sequence (Q99542 98-256 limits assumed): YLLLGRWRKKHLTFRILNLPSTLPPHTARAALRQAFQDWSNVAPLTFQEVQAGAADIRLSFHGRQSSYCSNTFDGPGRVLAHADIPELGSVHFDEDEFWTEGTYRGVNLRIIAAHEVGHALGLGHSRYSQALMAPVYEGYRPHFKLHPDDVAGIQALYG
Structure (SMILES),IC50 (hMMP8) [nM],IC50 [1] [nM],IC50 [2] [nM],IC50 [3] [nM],solubility [4] [µM],Protein binding (% free) (plasma protein),IC50 [5] [nM],Solubility pH 7.4 [μM]
"C[C@]1(CS(=O)(=O)N2CC=C(C#Cc3cnc(C4CC4)nc3)CC2)NC(=O)NC1=O [Example 1, (5S)-5-({[4-[(2-Cyclopropylpyrimidin-5-yl)ethynyl]-3,6-dihydropyridin-1(2H) -yl]sulfonyl}methyl)-5-methylimidazolidine-2,4-dione]",2530,5,6,> 10000,396,18,–,–
"C[C@]1(CS(=O)(=O)N2CC=C(C#Cc3ccc(Cl)cc3)CC2)NC(=O)NC1=O [(5S)-5-({[4-[(4-chlorophenyl)ethynyl]-3,6-dihydropyridin-1(2H)-yl]sulfonyl}methyl)-5-methylimidazolidine-2,4-dione, reference compound]",180,9,2,4300,49,1.75,3980,–
"Cc1ccc(C#CC2=CCN(S(=O)(=O)C[C@@]3(C)NC(=O)NC3=O)CC2)cc1 [(5S)-5-methyl-5-({[4-[(4-methylphenyl)ethynyl]-3,6-dihydropyridin-1(2H)-yl]sulfonyl}methyl)imidazolidine-2,4-dione, reference compound]",384,34,3,4430,72,2.25,1970,–

# Second part, the compound after the results:
IC50 (hMMP8) [nM],IC50 [1] [nM],IC50 [2] [nM],IC50 [3] [nM],solubility [4] [µM],Protein binding (% free) (plasma protein),IC50 [5] [nM],Solubility pH 7.4 [μM],Structure (SMILES)
547,5,6,> 10000,–,–,7900,118,C[C@]1(CS(=O)(=O)N2CC=C(C#Cc3cnc(C(F)(F)F)nc3)CC2)NC(=O)NC1=O [Example 3]
1140,9,9,> 10000,91,47,–,–,"CCc1ncc(C#CC2=CCN(S(=O)(=O)C[C@@]3(C)NC(=O)NC3=O)CC2)cn1.O=C(O)C(F)(F)F [Example 5, (5S)-5-({[4-[(2-Ethylpyrimidin-5-yl)ethynyl]-3,6-dihydropyridin-1(2H) -yl]sulfonyl}methyl)-5-methylimidazolidine-2,4-dione trifluoroacetate]"
